Laboratory results taken from ChEMBL document CHEMBL1201862, “PubChem BioAssay data set” (2004).
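Five compound concentrations were applied to cells in 96-well plates for 48 hours; endpoints were derived by simple linear interpolation of the resulting dose-response curve. Here, GI50 denotes the concentration required for 50% inhibition of growth.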 Activity calls are given as the source filed them. Rule as the data show it: active = GI50 up to about 1.1 µM and inactive = higher.

Experiments:
Experiment in all cases: NCI tumour cell line growth inhibition, 48 h
NCI-H522 = test system: NCI-H522
MCF7 = test system: MCF7
SK-OV-3 = test system: SK-OV-3
SK-MEL-2 = test system: SK-MEL-2
HCT-15 = test system: HCT-15
HCC 2998 = test system: HCC 2998
786-0 = test system: 786-0
Hs-578T = test system: Hs-578T
OVCAR-8 = test system: OVCAR-8
NCI/ADR-RES = test system: NCI/ADR-RES
UACC-257 = test system: UACC-257
TK-10 = test system: TK-10
SK-MEL-5 = test system: SK-MEL-5
UO-31 = test system: UO-31
NCI-H226 = test system: NCI-H226
MOLT-4 = test system: MOLT-4
ACHN = test system: ACHN
RPMI-8226 = test system: RPMI-8226
OVCAR-5 = test system: OVCAR-5
BT-549 = test system: BT-549

Row | Structure (SMILES) | GI50 (NCI-H522) | GI50 (MCF7) | GI50 (SK-OV-3) | GI50 (SK-MEL-2) | GI50 (HCT-15) | GI50 (HCC 2998) | GI50 (786-0) | GI50 (Hs-578T) | GI50 (OVCAR-8) | GI50 (NCI/ADR-RES) | GI50 (UACC-257) | GI50 (TK-10) | GI50 (SK-MEL-5) | GI50 (UO-31) | GI50 (NCI-H226) | GI50 (MOLT-4) | GI50 (ACHN) | GI50 (RPMI-8226) | GI50 (OVCAR-5) | GI50 (BT-549)
1 | COc1cc2c(cc1OCCCOS(C)(=O)=O)N=C[C@@H]1CCCN1C2=O | > 100 µM (inactive) | > 100 µM (inactive) | > 100 µM (inactive) | > 100 µM (inactive) | > 100 µM | > 100 µM (inactive) | > 100 µM (inactive) | > 100 µM (inactive) | > 100 µM (inactive) | > 100 µM (inactive) | > 100 µM (inactive) | > 100 µM (inactive) | > 100 µM (inactive) | > 100 µM (inactive) | > 100 µM (inactive) | > 100 µM (inactive) | > 100 µM (inactive) | > 100 µM (inactive) |  | 
2 | CCOC(=O)c1c(SC(=O)/C=C/c2ccccc2)n(-c2ccccc2)c(=S)n(-c2ccccc2)c1=O | > 100 µM (inactive) | > 100 µM (inactive) | > 100 µM (inactive) |  | > 100 µM | > 100 µM (inactive) | > 100 µM (inactive) | > 100 µM (inactive) | > 100 µM (inactive) | > 100 µM (inactive) | > 100 µM (inactive) | > 100 µM (inactive) |  |  | > 100 µM (inactive) | > 100 µM (inactive) | > 100 µM (inactive) |  | > 100 µM (inactive) | 
3 | BrCCCCCOc1ccc(-c2c3ccccc3c(-c3ccc(OCCCCCBr)cc3)c3ccccc23)cc1 |  | > 100 µM (inactive) | > 100 µM (inactive) | > 100 µM (inactive) | > 100 µM | > 100 µM (inactive) | > 100 µM (inactive) | 35.7 µM (inactive) | > 100 µM (inactive) | > 100 µM (inactive) | > 100 µM (inactive) | > 100 µM (inactive) | > 100 µM (inactive) | > 100 µM (inactive) | > 100 µM (inactive) | > 100 µM (inactive) | > 100 µM (inactive) | > 100 µM (inactive) | > 100 µM (inactive) | 
4 | N#Cc1c(O)c2ccccc2[nH]c1=O | > 100 µM (inactive) | > 100 µM (inactive) | > 100 µM (inactive) | > 100 µM (inactive) | > 100 µM | > 100 µM (inactive) | > 100 µM (inactive) |  | > 100 µM (inactive) | > 100 µM (inactive) | > 100 µM (inactive) | > 100 µM (inactive) | > 100 µM (inactive) | > 100 µM (inactive) | > 100 µM (inactive) | > 100 µM (inactive) | > 100 µM (inactive) | > 100 µM (inactive) | > 100 µM (inactive) | 
5 | COC1(OC)N=C(N)C2(C#N)C3(C(=O)N(C(C)C)N=C3C)C12C#N (configuration not stated) | > 100 µM (inactive) | > 100 µM (inactive) | > 100 µM (inactive) | > 100 µM (inactive) | > 100 µM | > 100 µM (inactive) | > 100 µM (inactive) |  | > 100 µM (inactive) | > 100 µM (inactive) | > 100 µM (inactive) |  |  | > 100 µM (inactive) | > 100 µM (inactive) | > 100 µM (inactive) | > 100 µM (inactive) | > 100 µM (inactive) | > 100 µM (inactive) | > 100 µM (inactive)
6 | Cc1ccc(/N=N/C(=O)NNc2ccc(C)c([N+](=O)[O-])c2)cc1[N+](=O)[O-] | 20.6 µM (inactive) | 23.2 µM (inactive) |  | 14.2 µM (inactive) | 30.1 µM | 17.4 µM (inactive) | 28.2 µM (inactive) |  | 26.2 µM (inactive) |  | 25.8 µM (inactive) | 45.1 µM (inactive) | 22.9 µM (inactive) | 15.2 µM (inactive) | 51.9 µM (inactive) | 12.5 µM (inactive) | 24.8 µM (inactive) | 19.9 µM (inactive) | 30.1 µM (inactive) | 30.8 µM (inactive)
7 | COC(=O)C1(C(=O)OC)CC(=O)c2c(OC(=O)c3cccc(OC)c3C#N)ccc(OC(=O)c3cccc(OC)c3C#N)c2C1 | > 100 µM (inactive) | > 100 µM (inactive) | > 100 µM (inactive) |  | > 100 µM | > 100 µM (inactive) | > 100 µM (inactive) | > 100 µM (inactive) | > 100 µM (inactive) | > 100 µM (inactive) | > 100 µM (inactive) | > 100 µM (inactive) | > 100 µM (inactive) | 59.2 µM (inactive) | > 100 µM (inactive) | > 100 µM (inactive) | > 100 µM (inactive) | 39.1 µM (inactive) | > 100 µM (inactive) | 
8 | CCOP(=O)(OCC)OC(C#N)c1ccc(-c2ccccc2)cc1 (configuration not stated) | 14.9 µM (inactive) |  | 28.4 µM (inactive) | 36.3 µM (inactive) | 18 µM | 28.5 µM (inactive) | 16.9 µM (inactive) |  | 19.5 µM (inactive) |  | 20.8 µM (inactive) | 30.5 µM (inactive) | 16 µM (inactive) | 47.3 µM (inactive) | 31.6 µM (inactive) | 14.2 µM (inactive) | 33 µM (inactive) | 20.7 µM (inactive) | 54.1 µM (inactive) | 
